“And” between values parts separate entries of the source, which are not always exact repeats. Equal values may be shown once. Read-outs that look alike come from different tables or passages of the source. Residues, ends and D or L forms follow the SMILES beside them. No end group written: not given here.
Assays:
hNEDD4-WW3 [1] = target: T1, hNEDD4-WW3 (Homo sapiens, UniProt P46934)
T1 construct: comprising aminoacids 834–878 (UniProtKB/Swiss-Prot code P46934); GST-His (pETM-30, TEV site) (N, cleaved yes); made in house; host or cells: E. coli BL21/DE3 is printed only for the pETM-11 NMR construct
T1 sequence (P46934 834-878): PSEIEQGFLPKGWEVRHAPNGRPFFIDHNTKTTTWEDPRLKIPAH

hYAP-WW2 [2] = target: T2, hYAP-WW2 (Homo sapiens, UniProt P46937); type: binding; details: pH 7
T2 construct: comprising aminoacids 165–209 and 228–271 respectively (UniProtKB/Swiss-Prot code Q7Z574); GST-His (pETM-30, TEV site) (N, cleaved yes); made in house
T2 sequence (P46937 228-271): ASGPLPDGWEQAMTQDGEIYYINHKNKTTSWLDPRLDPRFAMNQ

hNEDD4-WW3 [3] = target: T1, hNEDD4-WW3; experiment: biochemical; type: binding
hYAP-WW1 [4] = target: T3, hYAP-WW1 (Homo sapiens, UniProt P46937); type: binding; details: pH 7
T3 construct: comprising aminoacids 165–209 and 228–271 respectively (UniProtKB/Swiss-Prot code Q7Z574); GST-His (pETM-30, TEV site) (N, cleaved yes); made in house
T3 sequence (P46937 165-209): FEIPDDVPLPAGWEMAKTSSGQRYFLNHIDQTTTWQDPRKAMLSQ

hYAP-WW1 [5] = target: T3, hYAP-WW1; experiment: biochemical; type: binding
hNEDD4-WW3 [6] = target: T1, hNEDD4-WW3; experiment: biochemical; type: binding; remark: listed apart in the source
rNEDD4-WW2 = details: cited from earlier work
hITCHY-WW3 = details: cited from earlier work
SMURF1-WW2 = details: cited from earlier work
SMURF2-WW3 = details: cited from earlier work
NEDD4L-WW2 = details: cited from earlier work
hYAP-WW1 [7] = target: T3, hYAP-WW1; details: cited from earlier work
hYAP-WW2 [8] = target: T2, hYAP-WW2; details: cited from earlier work
hNEDD4-WW3 [9] = target: T1, hNEDD4-WW3; details: cited from earlier work
SU(dx)-WW4 = details: cited from earlier work
hNEDD4L-WW3 = details: cited from earlier work
dNEDD4-WW3 = details: cited from earlier work

With CC[C@H](C)[C@H](NC(C)=O)C(=O)N[C@@H](CC(C)C)C(=O)N1CCC[C@H]1C(=O)N[C@H](C(=O)N[C@@H](C)C(=O)N1CCC[C@H]1C(=O)N1CCC[C@H]1C(=O)N[C@@H](CCC(=O)O)C(=O)N[C@@H](Cc1ccc(O)cc1)C(=O)N[C@@H](CCSC)C(=O)N[C@@H](CCC(=O)O)C(=O)N[C@@H](C)C(N)=O)[C@@H](C)O [Ebola] the “amount by which theoretical enthalpy is smaller than the experimental enthalpy” value (hNEDD4-WW3 [1]) was 7.17 kcal/mol and the ΔH conf (hNEDD4-WW3 [1]) was -30,01 kJ·mol -1.
For CC(=O)N1CCC[C@H]1C(=O)N1CCC[C@H]1C(=O)N1CCC[C@H]1C(=O)N[C@@H](Cc1ccc(O)cc1)C(=O)N[C@H](C(=O)N[C@@H](CCC(=O)O)C(=O)N1CCC[C@H]1C(=O)N[C@H](C(=O)N[C@@H](C)C(=O)N1CCC[C@H]1C(N)=O)[C@@H](C)O)C(C)C [HTLV1 ter] (Ac-PPPYVEPTAP-NH2), the Kd (hYAP-WW2 [2]) was “n. b”, the ΔHap (hNEDD4-WW3 [3]; pH 7) was -17.7 ± 0.19 kcal/mol and the Kd (hYAP-WW1 [4]) was “n. b”.
For CC[C@H](C)[C@H](NC(=O)[C@H](CCC(N)=O)NC(=O)[C@@H]1CCCN1C(=O)[C@H](CC(=O)O)NC(=O)[C@H](CO)NC(C)=O)C(=O)N1CCC[C@H]1C(=O)N1CCC[C@H]1C(=O)N1CCC[C@H]1C(=O)N[C@@H](Cc1ccc(O)cc1)C(=O)N[C@H](C(=O)N[C@@H](CCC(=O)O)C(=O)N1CCC[C@H]1C(N)=O)C(C)C [HTLV1] (Ac-SDPQIPPPYVEP-NH2), the “amount by which theoretical enthalpy is smaller than the experimental enthalpy” value (hNEDD4-WW3 [1]) was 12 kcal/mol, the ΔH conf (hNEDD4-WW3 [1]) was -49,97 kJ·mol -1 and the “ΔΔH HTLV-Ebola” value (hNEDD4-WW3 [3]) was −20 kJ/mol^−1.
CSCC[C@H](NC(C)=O)C(=O)N[C@@H](CCC(N)=O)C(=O)N[C@@H](Cc1ccc(O)cc1)C(=O)N[C@@H](CC(C)C)C(=O)N[C@@H](CC(N)=O)C(=O)N1CCC[C@H]1C(=O)N1CCC[C@H]1C(=O)N1CCC[C@H]1C(=O)N[C@@H](Cc1ccc(O)cc1)C(=O)N[C@@H](C)C(=O)N[C@@H](CC(=O)O)C(=O)N[C@@H](Cc1c[nH]cn1)C(N)=O [Marburg] showed a Kd (hNEDD4-WW3 [3]) of 51 ± 1 µM and a ΔHap (hNEDD4-WW3 [3]; pH 7) of -17.5 ± 0.17 kcal/mol.
For CC(=O)N1CCC[C@H]1C(=O)N1CCC[C@H]1C(=O)N1CCC[C@H]1C(=O)N[C@@H](Cc1ccc(O)cc1)C(N)=O [PPPY] (Ac-PPPY-NH2), the Kd (hYAP-WW1 [5]) was 320 ± 30 µM, the ΔHap (hYAP-WW1 [5]; pH 7) was “^*−39 ± 3 kJ mol^−1” and the Kd (hYAP-WW2 [2]) was “n. b”. For the same compound, the Kd (hNEDD4-WW3 [6]) was 201 µM and the ΔHap (hNEDD4-WW3 [6]; pH 7) was “^*−38 ± 1 kJ mol^−1”.
With CC(=O)N[C@@H](CC(=O)O)C(=O)N[C@@H](CC(C)C)C(=O)N[C@@H](Cc1c[nH]c2ccccc12)C(=O)N[C@@H](CC(C)C)C(=O)N1CCC[C@H]1C(=O)N1CCC[C@H]1C(=O)N1CCC[C@H]1C(=O)N[C@@H](CCC(=O)O)C(=O)N[C@@H](Cc1ccc(O)cc1)C(=O)N[C@H](C(=O)N1CCC[C@H]1C(=O)N[C@@H](CC(C)C)C(N)=O)C(C)C [Rabies] the Kd (hYAP-WW2 [2]) was “n. b”, the Kd (hNEDD4-WW3 [3]) was 51 ± 1 µM and the ΔHap (hNEDD4-WW3 [3]; pH 7) was -15.7 ± 0.19 kcal/mol. It also gave a ΔHap (hYAP-WW1 [4]) of -15.2 ± 0.22 kcal/mol.
For CC(=O)N[C@@H](CCC(=O)O)C(=O)N[C@@H](Cc1ccc(O)cc1)C(=O)N1CCC[C@H]1C(=O)N1CCC[C@H]1C(=O)N[C@@H](Cc1ccc(O)cc1)C(=O)N1CCC[C@H]1C(=O)N1CCC[C@H]1C(=O)N1CCC[C@H]1C(=O)N1CCC[C@H]1C(=O)N[C@@H](Cc1ccc(O)cc1)C(=O)N1CCC[C@H]1C(=O)N[C@@H](CO)C(=O)NCC(N)=O [p53bp2] (Ac-EYPPYPPPPYPSG-NH2), the ΔHap (hYAP-WW2 [2]) was -13.6 ± 0.24 kcal/mol, the “binding selectivity between hNEDD4-WW3, YAP-WW1 and YAP-WW2” value (hNEDD4-WW3 [3]) was “do not distinguish between the three WW domains” and the Kd (hNEDD4-WW3 [3]) was 4.1 µM and 5.3 µM and 9.1 µM. The ΔCp (hNEDD4-WW3 [3]; pH 7) was −1.59 kJ K^−1 mol^−1 and −1.59 ± 0.01 kJ K^−1 mol^−1.
For “APLpSPMpSPPGYKLV [CX43-Cter, Cx43 carboxyl terminus peptide of literature complex 2N8T]”, the Kd (rNEDD4-WW2) is given as 430 µM.
In the case of “EEPPPPYED [Epstein-Barr, Epstein-Barr peptide of literature complex 2JO9]”, the Kd (hITCHY-WW3) is given as 52 µM.
For “ELESPPPPYSRYPMD [Smad7, Smad7 peptide […] of literature complexes 2LTY, 2LTX, 2LTZ, 2LTV, 2LTW]”, the Kd (SMURF1-WW2) is given as 4.2 µM, the Kd (SMURF2-WW3) is given as 4.5 µM and the Kd (NEDD4L-WW2) is given as 4.2 µM. For the same compound, the Kd (hYAP-WW1 [7]) was 6.9 µM and the Kd (hYAP-WW2 [8]) was 60 µM.
In the case of “GPPPY ({n‑octyl}-GPPPY) [peptide of literature complex 1K9Q]”, the Kd (hYAP-WW1 [7]) is given as 700 µM.
For “GSTLPIPGTPPPNYDSL [βENaC, βENaC peptide of literature complex 1I5H]”, the Kd (hNEDD4-WW3 [9]) is listed as 21 µM.
For “GTPPPPYTVG [WBP1, WBP1 peptide of literature complex 1JMQ]”, the Kd (hYAP-WW1 [7]) is listed as 40 µM.
For “NTGAKQPPSYEDCIK [Notch, Notch peptide of literature complex 2JMF]”, the Kd (SU(dx)-WW4) is given as 45 µM.
In the case of “PLPPY [peptide of literature complex 1K9R]”, the Kd (hYAP-WW1 [7]) is listed as 500 µM.
In the case of “RLDLPPYETFEDI [HECT-Cterm, HECT C-terminal peptide of literature complex 2MPT]”, the Kd (hNEDD4L-WW3) is given as 4 µM.
For “RPE−5AP−3P−2SY0AEVVT (RPEAPPSYAEVVT) [ARRDC3]”, the Kd (hNEDD4-WW3 [9]) is given as 3.3 µM and 3 µM.
For RPE−5AP−3P−2SY0AEVVT [ARRDC3], the “ΔH exp (25C)” value (hNEDD4-WW3 [9]) is given as -75,4 kJ·mol -1 and the ΔH conf (hNEDD4-WW3 [1]) is given as -64,67 kJ·mol -1.
In the case of “TAPPPAYATLG [αENaC, αENaC PY motif peptide of literature complex 2M30]”, the Kd (hNEDD4-WW3 [9]) is given as 45 µM, the “ΔH exp (25C)” value (hNEDD4-WW3 [9]) is given as -58,2 kJ·mol -1 and the ΔH conf (hNEDD4-WW3 [1]) is given as -48,29 kJ·mol -1.
In the case of “TGLPSYDEALH [Comm, Comm PY motif peptide of literature complex 2EZ5]”, the Kd (dNEDD4-WW3) is listed as 3.1 µM.

— paper PMC6803667, “Binding site plasticity in viral PPxY Late domain recognition by the third WW domain of human NEDD4” (Scientific Reports, 2019)
